In PubChem BioAssay (NCI) one finds TGI data, which are given here for 8 compounds.

Among the test systems are EKVX NSCLC; SF-268 CNS; UACC-257 melanoma; CAKI-1 renal; SK-OV-3 ovarian; SNB-19 CNS; TK-10 renal; OVCAR-4 ovarian; NCI-H23 lung; UACC-62 melanoma; DU-145 prostate; MDA-MB-231 breast; HCT-15 colon; MCF7 breast; M14 melanoma; KM12 colon; MDA-N; A549 NSCLC; ACHN renal.
Holding throughout (test): growth of human tumour cells (NCI), 48 h

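96-well plates; 48 h exposure; 5 concentrations. Endpoints by linear interpolation between flanking doses. Not reached: highest tested concentration assigned. TGI marks complete inhibition of growth.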

Regarding `Nc1cccc(OCC2CCCN3CCCCC23)c1` (configuration not stated), the TGI in the assay on EKVX NSCLC was 31.7 µM; with SF-268 CNS, 36.2 µM; in the assay with UACC-257 melanoma, 34.3 µM; in the assay with CAKI-1 renal, 35.2 µM; in the assay on SK-OV-3 ovarian, greater than 100 µM; in the assay with SNB-19 CNS it was 32.8 µM. In addition, the TGI is 34.1 µM in the assay with TK-10 renal; 47.2 µM in the assay with OVCAR-4 ovarian; 34.3 µM in the assay with NCI-H23 lung; 31.8 µM with UACC-62 melanoma; 32.6 µM in the assay on DU-145 prostate; 32.6 µM with MDA-MB-231 breast. Moreover, the TGI in the assay on HCT-15 colon was found to be 31.5 µM; in the assay with MCF7 breast it was 37.1 µM; in the assay on M14 melanoma, 41.4 µM; with KM12 colon, 32.4 µM; in the assay on MDA-N it was 30.8 µM; in the assay on A549 NSCLC, 45.1 µM. Further, the TGI in the assay on ACHN renal worked out at 31.9 µM.

`COC(=O)c1ccc(C)cc1CC1Cc2cccc(C)c2C1=O` (configuration not stated): the TGI is 13.9 µM in the assay with EKVX NSCLC; greater than 100 µM in the assay with SF-268 CNS; 47.9 µM with UACC-257 melanoma; greater than 100 µM in the assay with CAKI-1 renal; 92 µM in the assay with SK-OV-3 ovarian; greater than 100 µM with SNB-19 CNS. For the same compound, the TGI in the assay on TK-10 renal is 48.6 µM; in the assay with OVCAR-4 ovarian, 95.8 µM; with NCI-H23 lung, greater than 100 µM; in the assay on UACC-62 melanoma, 49.6 µM; in the assay with DU-145 prostate it was greater than 100 µM; in the assay with MDA-MB-231 breast, 51.9 µM. Besides, the TGI is 12.5 µM in the assay on HCT-15 colon; 7.38 µM in the assay on MCF7 breast; 23.2 µM in the assay with M14 melanoma; 23 µM in the assay with KM12 colon; 3.86 µM in the assay on MDA-N; greater than 100 µM in the assay with A549 NSCLC. The TGI in the assay with ACHN renal is 97.6 µM.

As for `CCOC(=O)/C(C(=S)NCc1ccccc1)=C(/N)N1CCCC1`, the TGI with EKVX NSCLC, in the assay on SF-268 CNS, with UACC-257 melanoma, in the assay on CAKI-1 renal, in the assay on SNB-19 CNS and in the assay with TK-10 renal was greater than 100 µM each time. The TGI in the assay with OVCAR-4 ovarian, in the assay on NCI-H23 lung, in the assay with UACC-62 melanoma, with DU-145 prostate, in the assay on MDA-MB-231 breast and with HCT-15 colon was greater than 100 µM each time. The TGI with MCF7 breast, in the assay on M14 melanoma, in the assay on KM12 colon, in the assay on MDA-N, in the assay with A549 NSCLC and in the assay on ACHN renal was greater than 100 µM in each case.

With `Cc1cc(S(=O)(=O)Nc2nnc3ccccn23)c(S)cc1Cl`, the TGI in the assay on EKVX NSCLC, in the assay with UACC-257 melanoma, with SNB-19 CNS, in the assay on TK-10 renal, in the assay with OVCAR-4 ovarian and in the assay with NCI-H23 lung was greater than 100 µM throughout. The TGI in the assay with UACC-62 melanoma, in the assay with DU-145 prostate, in the assay on MDA-MB-231 breast, in the assay with HCT-15 colon, in the assay with MCF7 breast and in the assay on M14 melanoma was greater than 100 µM in each case. Further, the TGI in the assay on KM12 colon, with MDA-N, in the assay with A549 NSCLC and with ACHN renal was greater than 100 µM each time.

`COC(=O)c1c(O)ccc2c1c1c(n2Cc2ccccc2OC)C(=O)c2ccccc2C1=O`: the TGI in the assay on EKVX NSCLC was determined as 45 µM; in the assay with SF-268 CNS, 29.7 µM; with UACC-257 melanoma it was 55.1 µM; with CAKI-1 renal, 37.9 µM; with SK-OV-3 ovarian, 53.7 µM; in the assay with SNB-19 CNS, 95.9 µM. In addition, the TGI amounted to 65 µM in the assay with TK-10 renal; 26.9 µM in the assay on OVCAR-4 ovarian; 34.8 µM in the assay with NCI-H23 lung; 30 µM in the assay on DU-145 prostate; 54.9 µM in the assay with MDA-MB-231 breast; 20 µM with HCT-15 colon. Also, the TGI with MCF7 breast came out at 43.7 µM; with M14 melanoma, 22.6 µM; in the assay with KM12 colon, 23.4 µM; with MDA-N it was 37.9 µM; in the assay with A549 NSCLC, 20.2 µM; with ACHN renal it was 29.7 µM.

Turning to `CS(=O)(=O)OCCCSCCSCCCOS(C)(=O)=O`, the TGI in the assay with EKVX NSCLC, with SF-268 CNS, with UACC-257 melanoma, in the assay with SK-OV-3 ovarian, in the assay with SNB-19 CNS and in the assay on TK-10 renal was greater than 100 µM in each case. In addition, the TGI in the assay with OVCAR-4 ovarian, in the assay with NCI-H23 lung, in the assay with UACC-62 melanoma, in the assay on DU-145 prostate, in the assay on MDA-MB-231 breast and with HCT-15 colon was greater than 100 µM each time. Also, the TGI in the assay with MCF7 breast, in the assay with M14 melanoma, in the assay with KM12 colon, in the assay on MDA-N and with A549 NSCLC was greater than 100 µM throughout.

For the compound `CCOC(=O)NN(C(=O)OCC)C(=C(C1=CCCCC1)N1CCOCC1)N(NC(=O)OCC)C(=O)OCC`, the TGI in the assay on EKVX NSCLC, in the assay with SF-268 CNS, in the assay on CAKI-1 renal, with SK-OV-3 ovarian, in the assay with SNB-19 CNS and in the assay on TK-10 renal was greater than 100 µM each time. In addition, the TGI in the assay on NCI-H23 lung, with UACC-62 melanoma, in the assay with DU-145 prostate, in the assay on MDA-MB-231 breast, in the assay with HCT-15 colon and in the assay on MCF7 breast was greater than 100 µM each time. The TGI in the assay with M14 melanoma, in the assay with KM12 colon, with MDA-N, in the assay with A549 NSCLC and in the assay on ACHN renal was greater than 100 µM throughout.

Take `CCC/C(Cl)=N/OC(NC(=O)OCC)(C(F)(F)F)C(F)(F)F`: the TGI is 45 µM in the assay on EKVX NSCLC; 36.6 µM in the assay with SF-268 CNS; 37.7 µM in the assay with UACC-257 melanoma; 35.6 µM with CAKI-1 renal; greater than 100 µM with SNB-19 CNS; 33.3 µM in the assay with TK-10 renal. Further, the TGI with OVCAR-4 ovarian was 31.7 µM; with NCI-H23 lung, 61.4 µM; with UACC-62 melanoma it was greater than 100 µM; in the assay on DU-145 prostate it was greater than 100 µM; in the assay on MDA-MB-231 breast it was 31.6 µM; in the assay on HCT-15 colon, 40.6 µM. The TGI in the assay with MCF7 breast was 43.5 µM; in the assay with M14 melanoma it was 32.1 µM; in the assay on KM12 colon it was greater than 100 µM; in the assay with MDA-N, 35.9 µM; in the assay on A549 NSCLC, greater than 100 µM; in the assay on ACHN renal, 32.3 µM.
